*1 amine or outer side, *2 acyl side, *3 side chain or, on linkers, in order; H or OH if unused. Where a SMILES comes first, the peptide text is derived from it. Side-chain parts run from the residue outwards. [ ]: non-standard residue; d: D form. The star is where a group is joined. Isobutyryl(2-(3-CN-5-F-Ph)) = CC(C)(C(=O)*)c1cc(F)cc(C#N)c1; C20 diacid = O=C(O)CCCCCCCCCCCCCCCCCCC(=O)*; C18 diacid = O=C(O)CCCCCCCCCCCCCCCCC(=O)*; γGlu = O=C(O)[C@H](CCC(=O)[*:2])N[*:1]; X80 = CC1CC(C(=O)*)(n2cccn2)CCO1; AEEA = NCCOCCOCC(=O)O; Aib = CC(C)(N)C(=O)O; βAla = NCCC(=O)O Some results are limits rather than exact numbers.

What all share (type): cell-based
The target in experiment [1] is T1, GLP-1 receptor (Homo sapiens, UniProt P43220). In words: PathHunter β-arrestin assay, GLP-1 receptor. The arrangement: host or cells: PathHunter CHO-K1 GLP1R β-Arrestin Cell Line. The settings on record: β-arrestin-2 recruitment, PathHunter CHO-K1 GLP1R β-Arrestin Cell Line, 90 min at 37° C.; normalized to GLP-1; read-out: GLP-1R β Arrestin EC50.
T1 sequence (P43220 24-463): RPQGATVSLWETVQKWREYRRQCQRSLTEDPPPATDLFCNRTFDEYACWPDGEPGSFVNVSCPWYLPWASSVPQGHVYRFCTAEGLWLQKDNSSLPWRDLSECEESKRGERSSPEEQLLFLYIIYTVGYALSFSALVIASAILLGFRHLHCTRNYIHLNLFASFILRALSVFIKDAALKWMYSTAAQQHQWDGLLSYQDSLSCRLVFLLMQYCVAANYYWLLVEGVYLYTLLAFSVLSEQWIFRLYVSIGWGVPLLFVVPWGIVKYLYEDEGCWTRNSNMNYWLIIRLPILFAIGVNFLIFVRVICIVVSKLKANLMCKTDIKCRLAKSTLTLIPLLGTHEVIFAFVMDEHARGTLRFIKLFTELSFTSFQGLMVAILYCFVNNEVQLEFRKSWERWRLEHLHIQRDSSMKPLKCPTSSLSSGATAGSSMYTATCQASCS
Experiment [2] deals with T2, GIP receptor (Homo sapiens, UniProt P48546).
T2 sequence (P48546 22-466): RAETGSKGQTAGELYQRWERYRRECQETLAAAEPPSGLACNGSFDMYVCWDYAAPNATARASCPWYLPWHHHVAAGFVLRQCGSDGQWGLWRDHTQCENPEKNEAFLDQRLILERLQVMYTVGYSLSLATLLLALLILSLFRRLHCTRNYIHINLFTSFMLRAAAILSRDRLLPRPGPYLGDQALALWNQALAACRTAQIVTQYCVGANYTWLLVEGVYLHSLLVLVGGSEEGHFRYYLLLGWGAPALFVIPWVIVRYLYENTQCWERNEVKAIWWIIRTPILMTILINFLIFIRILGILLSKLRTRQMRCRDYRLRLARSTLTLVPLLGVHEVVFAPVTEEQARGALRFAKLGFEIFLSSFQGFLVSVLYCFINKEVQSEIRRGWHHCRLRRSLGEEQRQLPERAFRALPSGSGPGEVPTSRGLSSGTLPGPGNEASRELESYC
The experiment in a line: PathHunter β-arrestin assay, GIP receptor. The arrangement: host or cells: PathHunter CHO-K1 GIPR β-Arrestin Cell Line. Conditions: β-arrestin-2 recruitment, PathHunter CHO-K1 GIPR β-Arrestin Cell Line, 90 min at 37° C.; normalized to GIP; read-out: GIPR β Arrestin EC50. (Arrestin recruitment assays detect the binding of arrestin to an activated receptor.)

The target in experiment [3] is T1, GLP-1 receptor. In words: HitHunter cAMP assay, GLP-1 receptor. The settings on record: for EC50: CHO cells stably expressing human GLP-1 receptor, cAMP accumulation, 30 min, read-out: EC50 GLP-1R; for Emax: CHO cells, cAMP, normalized to maximum signal from GLP-1 (high) and DMSO (low), read-out: Emax GLP-1R. (Changes in cAMP serve as a functional read-out for many G protein-coupled receptors.)

For experiment [4], the target named is T2, GIP receptor. In words: HitHunter cAMP assay, GIP receptor. Conditions: for EC50: CHO cells stably expressing GIP receptor, cAMP accumulation, 30 min, read-out: EC50 GIP-1R; for Emax: CHO cells, cAMP, normalized to maximum signal from GIP (high) and DMSO (low), read-out: Emax GIP-1R.

With `CC[C@H](C)[C@H](NC(=O)[C@H](CC(C)C)NC(=O)[C@H](Cc1c[nH]c2ccccc12)NC(=O)[C@H](CCC(N)=O)NC(=O)[C@@H](NC(=O)[C@H](Cc1ccccc1)NC(=O)[C@H](C)NC(=O)[C@H](CCCCNC(=O)COCCOCCNC(=O)COCCOCCNC(=O)CC[C@H](NC(=O)CCCCCCCCCCCCCCCCCCC(=O)O)C(=O)O)NC(=O)[C@H](CCC(N)=O)NC(=O)[C@H](C)NC(=O)[C@@H](NC(=O)[C@H](CCCCN)NC(=O)[C@H](CC(=O)O)NC(=O)[C@H](CC(C)C)NC(=O)C(C)(C)NC(=O)[C@@H](NC(=O)[C@H](CO)NC(=O)[C@H](Cc1ccc(O)cc1)NC(=O)[C@H](CC(=O)O)NC(=O)[C@H](CO)NC(=O)[C@@H](NC(=O)[C@H](Cc1ccccc1)NC(=O)[C@@H](NC(=O)CNC(=O)[C@H](CCC(=O)O)NC(=O)CCNC(=O)C1(n2cccn2)CCOC(C)C1)[C@@H](C)O)[C@@H](C)O)[C@@H](C)CC)[C@@H](C)CC)C(C)C)C(=O)N[C@@H](C)C(=O)NCC(=O)NCC(=O)N1CCC[C@H]1C(=O)N[C@@H](CO)C(=O)N[C@@H](CO)C(=O)NCC(=O)N[C@@H](C)C(=O)N1CCC[C@H]1C(=O)N1CCC[C@H]1C(=O)N1CCC[C@H]1C(=O)N[C@@H](CO)C(N)=O` (stereo partly drawn) [Compound 105] ({X80-βAla}-EGTFTSDYSI[Aib]LDKIAQK([AEEA-AEEA-γGlu-C20 diacid])AFVQWLIAGGPSSGAPPPS-NH2), the EC50 was more than 1000 nM on GLP-1 receptor [1], more than 1000 nM on GIP receptor [2], 0.1 to 1 nM at GLP-1 receptor [3] and 1 to 10 nM on GIP receptor [4]. In addition, the Emax on GLP-1 receptor [3] was 95%; at GIP receptor [4] it was 112%.
On to `CC[C@H](C)[C@H](NC(=O)[C@H](CC(C)C)NC(=O)[C@H](Cc1c[nH]c2ccccc12)NC(=O)[C@H](CCC(N)=O)NC(=O)[C@@H](NC(=O)[C@H](Cc1ccccc1)NC(=O)[C@H](C)NC(=O)[C@H](CCCCNC(=O)COCCOCCNC(=O)COCCOCCNC(=O)CC[C@H](NC(=O)CCCCCCCCCCCCCCCCC(=O)O)C(=O)O)NC(=O)[C@H](CCC(N)=O)NC(=O)[C@H](C)NC(=O)[C@@H](NC(=O)[C@H](CCCCN)NC(=O)[C@H](CC(=O)O)NC(=O)[C@H](CC(C)C)NC(=O)C(C)(C)NC(=O)[C@@H](NC(=O)[C@H](CO)NC(=O)[C@H](Cc1ccc(O)cc1)NC(=O)[C@H](CC(=O)O)NC(=O)[C@H](CO)NC(=O)[C@@H](NC(=O)[C@H](Cc1ccccc1)NC(=O)[C@@H](NC(=O)CNC(=O)[C@H](CCC(=O)O)NC(=O)CCNC(=O)C(C)(C)c1cc(F)cc(C#N)c1)[C@@H](C)O)[C@@H](C)O)[C@@H](C)CC)[C@@H](C)CC)C(C)C)C(=O)N[C@@H](C)C(=O)NCC(=O)NCC(=O)N1CCC[C@H]1C(=O)N[C@@H](CO)C(=O)N[C@@H](CO)C(=O)NCC(=O)N[C@@H](C)C(=O)N1CCC[C@H]1C(=O)N1CCC[C@H]1C(=O)N1CCC[C@H]1C(=O)N[C@@H](CO)C(N)=O` [Compound 106] ({Isobutyryl(2-(3-CN-5-F-Ph))-βAla}-EGTFTSDYSI[Aib]LDKIAQK([AEEA-AEEA-γGlu-C18 diacid])AFVQWLIAGGPSSGAPPPS-NH2), for which the EC50 was more than 1000 nM on GLP-1 receptor [1], more than 1000 nM on GIP receptor [2], 0.1 to 1 nM on GLP-1 receptor [3] and 10 to 100 nM on GIP receptor [4]. Also, the Emax worked out at 97% on GLP-1 receptor [3] and 98% on GIP receptor [4].

Usually EC50 stands for the midpoint of the concentration-response curve. By Emax is commonly meant the size of the effect at its maximum, as opposed to the concentration needed.

These data come from US12281149B2, “Modulators of G-protein coupled receptors” (priority 2021, dated 2025).
